Assay [1] deals with Human 11β-HSD1 (Homo sapiens, UniProt P28845). Kind of assay: Evaluation of compound against human 11β-HSD1 (HTRF cortisol assay). In kind it is biochemical. Particulars: substrate cortisone 5 μM, 37° C. for 2 hours, HTRF method. The protocol:
(§1) After preincubating an inhibitor in a reaction solution consisting of 50 mM sodium phosphate buffer (pH 7.6), bovine serum albumin (1 mg/mL), NADPH (0.42 mg/mL), glucose-6-phosphate (1.26 mg/mL), glucose-6-phosphate dehydrogenase and an enzyme at room temperature for 30 minutes, cortisone (5 μM) which is a substrate was added (total amount 10 μL). After reacting at 37° C. for 2 hours, an XL-665-labeled cortisol solution (5 μL), and a Cryptate-labeled anti-cortisol antibody solution (5 μL) were added, a reaction was performed at room temperature for 2 hours, and fluorescence intensity (HTRF method) was measured. A cortisol concentration was measured from a standard curve prepared using a known concentration of cortisol for each assay.
Taking a concentration of cortisol generated in the absence of the inhibitor as a control value, 50% inhibition concentration (IC50 value) of the inhibitor against 11β-HSD1 was calculated from an inhibition curve plotting inhibition rate against the control value at each concentration of an inhibitor.
In general terms: Time-resolved FRET reads energy transfer from a long-lived donor to a nearby acceptor.

The target in assay [2] is Mouse 11β-HSD1 (Mus musculus, UniProt P50172). Description: Evaluation of compound against mouse 11β-HSD1 (HTRF corticosterone assay). In kind it is biochemical. The settings on record: substrate 11-dehydrocorticosterone 2 μM, 37° C. for 2 hours, HTRF method. As for the experimental part: as §1, with “dehydrogenase,” for “dehydrogenase”, “11-dehydrocorticosterone (2” for “cortisone (5”, “measured.” for “measured. A cortisol concentration was measured from a standard curve prepared using a known concentration of cortisol for each assay.”
A corticosterone concentration was measured from a standard curve prepared using a known concentration of corticosterone for each assay.
Taking a concentration of corticosterone generated in the absence of the inhibitor as a control value, 50% inhibition concentration (IC50 value) of the inhibitor against 11β-HSD1 was calculated from an inhibition curve plotting inhibition rate against the control value at each concentration of the inhibitor.

Structures are written as SMILES.

For orientation: IC50 means the concentration that gives 50% inhibition.

Human 11β-HSD1, sequence (P28845 whole entry): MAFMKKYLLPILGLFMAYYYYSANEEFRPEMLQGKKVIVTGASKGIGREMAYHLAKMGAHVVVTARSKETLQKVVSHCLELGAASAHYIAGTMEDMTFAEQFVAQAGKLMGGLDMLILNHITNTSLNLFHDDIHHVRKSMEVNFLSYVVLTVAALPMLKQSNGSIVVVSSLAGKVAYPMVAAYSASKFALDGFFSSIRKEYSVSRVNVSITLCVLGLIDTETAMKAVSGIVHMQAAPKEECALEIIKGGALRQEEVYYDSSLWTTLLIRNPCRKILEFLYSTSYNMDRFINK
Mouse 11β-HSD1, sequence (P50172 whole entry): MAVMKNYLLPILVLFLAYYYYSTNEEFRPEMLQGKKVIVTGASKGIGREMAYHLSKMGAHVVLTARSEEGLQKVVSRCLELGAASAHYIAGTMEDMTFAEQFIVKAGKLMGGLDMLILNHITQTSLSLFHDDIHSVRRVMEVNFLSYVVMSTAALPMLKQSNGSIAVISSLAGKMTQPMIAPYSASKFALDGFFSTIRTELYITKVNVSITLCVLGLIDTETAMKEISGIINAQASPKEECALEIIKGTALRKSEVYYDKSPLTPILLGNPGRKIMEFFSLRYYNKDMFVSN

With `CCN(C[C@@H]1CN(C2CCCCCCC2)C(=O)O1)S(=O)(=O)c1ccccc1` [Compound I-21], the figures for the IC50 in assay [1] and in assay [2] were 0.43 µM and 8.4 µM, respectively.

These data come from patent US7998992B2, “Oxazolidinone derivative having inhibitory activity on 11β-hydroxysteroid dehydrogenase type 1” (Institute of Medicinal Molecular Design, Inc., priority 2007, dated 2011).
